target: MAPK14 (human) (UniProt Q16539); experiment: Inhibition of MAPK14 Kinase Activity
Sequence (Q16539 whole entry, looked up): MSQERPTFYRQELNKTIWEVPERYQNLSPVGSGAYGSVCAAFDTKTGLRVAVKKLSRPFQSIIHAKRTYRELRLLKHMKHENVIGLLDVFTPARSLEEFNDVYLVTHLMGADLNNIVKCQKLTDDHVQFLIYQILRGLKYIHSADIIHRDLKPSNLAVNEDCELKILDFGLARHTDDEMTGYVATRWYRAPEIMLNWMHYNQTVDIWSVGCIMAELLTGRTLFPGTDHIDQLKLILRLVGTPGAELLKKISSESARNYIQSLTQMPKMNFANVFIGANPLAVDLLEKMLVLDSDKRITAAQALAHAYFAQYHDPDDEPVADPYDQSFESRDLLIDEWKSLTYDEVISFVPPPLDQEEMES

SMILES	IC50
CC(C)n1cnc2ccc(-c3n[nH]nc3-c3ccccc3)cc21	≤ 5 µM
Nc1nc2ccc(-c3nc(C4CC4)[nH]c3-c3ccc(F)cc3F)cc2n1CC1CC1	≤ 5 µM
CC(C)Cn1c(N)nc2ccc(-c3cn(-c4ccccc4F)nc3-c3ccccc3)cc21	≤ 5 µM
Cc1nc(-c2ccc(F)cc2F)c(-c2ccc3nc(N)n(CC(C)C)c3c2)[nH]1	≤ 5 µM
CC(C)Cn1c(N)nc2ccc(-c3cn(C(C)C)nc3-c3ccc(F)cc3)cc21	≤ 5 µM
CC(C)Cn1c(N)nc2ccc(-c3n[nH]nc3-c3ccccc3)cc21	≤ 5 µM
CC(C)Cn1c(N)nc2ccc(-c3[nH]c(C4CC4)nc3-c3ccccc3)cc21	≤ 5 µM
CC(C)n1c(N)nc2ccc(-c3[nH]c(-c4ccccc4)nc3-c3ccccc3)cc21	≤ 5 µM
Fc1cccc(F)c1-c1nc(-c2ccccc2)c(-c2ccc3nc[nH]c3c2)[nH]1	≤ 5 µM
CCCn1c(N)nc2ccc(-c3[nH]c(-c4c(F)cccc4F)nc3-c3ccccc3)cc21	≤ 5 µM
CC(C)Cn1c(N)nc2ccc(-n3ccnc3-c3ccccc3)cc21	≤ 5 µM
CC(C)(C)Cn1c(N)nc2ccc(-c3[nH]c(C(C)(C)C)nc3-c3ccccc3)cc21	≤ 5 µM
CC(C)Cn1c(N)nc2ccc(-c3[nH]c(C(F)(F)F)nc3-c3ccccc3)cc21	≤ 5 µM
CCCCn1c(N)nc2ccc(-c3[nH]c(-c4c(F)cccc4F)nc3-c3ccccc3)cc21	≤ 5 µM
C[C@H](n1c(N)nc2ccc(-c3[nH]c(C(C)(C)C)nc3-c3ccccc3)cc21)C(C)(C)C	≤ 5 µM
CC(C)Cn1c(N)nc2ccc(-c3[nH]c(-c4c(F)cccc4C(F)(F)F)nc3-c3ccc(F)cc3F)cc21	≤ 5 µM
Cc1onc(-c2ccccc2)c1-c1ccc2nc(N)n(S(=O)(=O)C(C)C)c2c1	≤ 5 µM
Cn1cnc2ccc(-c3[nH]c(-c4c(F)cccc4F)nc3-c3ccccc3)cc21	≤ 5 µM
C[C@H](n1c(N)nc2ccc(-c3[nH]c(-c4c(F)cccc4Cl)nc3-c3ccccc3)cc21)C(C)(C)C	≤ 5 µM
CC(C)Cn1c(N)nc2ccc(-c3[nH]c(C4CC4)nc3-c3ccc(F)cc3)cc21	≤ 5 µM
CC(C)Cn1cnc2ccc(-c3[nH]c(-c4c(F)cccc4F)nc3-c3ccccc3)cc21	≤ 5 µM

Second part, the molecule after the results:

IC50	SMILES
≤ 5 µM	C[C@H](n1c(N)nc2ccc(-c3[nH]c(-c4c(F)cccc4F)nc3-c3ccccc3)cc21)C(C)(C)C
≤ 5 µM	Cc1nc2ccc(-c3cn[nH]c3-c3ccc(F)cc3)cc2n1CC(C)C
≤ 5 µM	CC(C)Cn1c(N)nc2ccc(-c3nc(-c4c(C(F)(F)F)cccc4C(F)(F)F)[nH]c3-c3ccccc3)cc21
≤ 5 µM	CC(C)Cn1c(N)nc2ccc(-c3cn(C(C)(C)C)nc3-c3ccc(F)cc3)cc21
≤ 5 µM	CC(C)(C)Cn1cnc2ccc(-c3[nH]c(-c4c(F)cccc4F)nc3-c3ccccc3)cc21
≤ 5 µM	CC(C)Cn1c(N)nc2ccc(-c3cn(C(C)(C)C)nc3-c3ccccc3)cc21
≤ 5 µM	CCCn1cnc2ccc(-c3[nH]c(-c4c(F)cccc4F)nc3-c3ccccc3)cc21
≤ 5 µM	Nc1nc2ccc(-c3nc(-c4c(F)cccc4Cl)[nH]c3-c3ccccc3)cc2n1CC1CC1
≤ 5 µM	CC(C)Cn1c(N)nc2ccc(-c3oc(C(C)(C)C)nc3-c3ccc(F)cc3F)cc21
≤ 5 µM	CC(C)Cn1c(N)nc2ccc(-c3[nH]c(C(C)(C)C)nc3-c3ccc(F)cc3F)cc21
≤ 5 µM	CC(C)(C)Cn1c(N)nc2ccc(-c3[nH]c(C4CC4)nc3-c3ccccc3)cc21
≤ 5 µM	CC(C)Cn1c(N)nc2ccc(-c3c(-c4ccc(F)cc4)ncn3C)cc21
≤ 5 µM	Cc1nc2ccc(-c3nc(-c4c(F)cccc4F)[nH]c3-c3ccccc3)cc2n1CC(C)C
≤ 5 µM	CC(C)Cn1c(N)nc2ccc(-c3c(-c4ccccc4)nc(-c4ccc(Cl)cc4)n3C)cc21
≤ 5 µM	CC(C)Cn1c(N)nc2ccc(-c3c(-c4ccccc4)ncn3C)cc21
≤ 5 µM	Fc1cccc(F)c1-c1nc(-c2ccccc2)c(-c2ccc3ncn(CC4CC4)c3c2)[nH]1
≤ 5 µM	C[C@@H](n1c(N)nc2ccc(-c3[nH]c(C(C)(C)C)nc3-c3ccccc3)cc21)C(C)(C)C
≤ 5 µM	CC(C)Cn1c(N)nc2ccc(-c3[nH]c(-c4c(F)cccc4C(F)(F)F)nc3-c3ccccc3)cc21
≤ 5 µM	CC(C)Cn1c(N)nc2ccc(-c3[nH]c(-c4ccc(Cl)cc4)nc3-c3ccccc3)cc21
≤ 5 µM	CCCCn1cnc2ccc(-c3[nH]c(-c4c(F)cccc4F)nc3-c3ccccc3)cc21
≤ 5 µM	CC(C)Cn1c(N)nc2ccc(-c3[nH]c(-c4ccccc4C(F)(F)F)nc3-c3ccccc3)cc21
≤ 5 µM	CC(C)Cn1c(N)nc2ccc(-c3c(-c4ccc(F)cc4)nc4n3CCC4)cc21
≤ 5 µM	CC(C)Cn1c(N)nc2ccc(-c3c[nH]nc3-c3ccccc3)cc21
≤ 5 µM	CC(C)Cn1c(N)nc2ccc(-c3c(-c4ccccc4)nc(C4CC4)n3C)cc21
≤ 5 µM	Cc1ccsc1-c1nc(-c2ccc3nc(N)n(CC(C)C)c3c2)c(-c2ccccc2)[nH]1
≤ 5 µM	Nc1nc2ccc(-c3nc(-c4c(F)cccc4Cl)[nH]c3-c3ccc(F)cc3F)cc2n1CC1CC1
≤ 5 µM	Clc1ccc(-c2nc(-c3ccccc3)c(-c3ccc4ncn(CC5CC5)c4c3)[nH]2)cc1

Source: the Kinase Knowledgebase extract (Sharma et al. 2016)
